Some test systems named below: HCT-116 colon; SF-539 CNS; MALME-3M melanoma; UACC-62 melanoma; HOP-92 NSCLC; MDA-MB-231 breast; IGROV1 ovarian; T-47D breast; LOX IMVI melanoma; SF-295 CNS.
Test in all cases: NCI anticancer screen, dose series, 48 h

Molecules are shown by their SMILES.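 These data come from cells grown in 96-well plates and exposed to compound for 48 hours at five concentrations. The concentration for 50% growth inhibition is given as GI50. TGI marks complete inhibition of growth.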

With `COc1ccc(/C=C/C(=O)c2cc3c(N)c(C(=O)Nc4ccccc4C)sc3nc2C)cc1`, the GI50 with HCT-116 colon was 530 nM; in the test with SF-539 CNS, 487 nM; with MALME-3M melanoma it was 248 nM; in the test with UACC-62 melanoma it was 275 nM; in the test with HOP-92 NSCLC, 600 nM; with MDA-MB-231 breast it was 1180 nM. The GI50 is 655 nM with IGROV1 ovarian, 322 nM in the test on T-47D breast, 768 nM in the test with LOX IMVI melanoma and 497 nM with SF-295 CNS. Further, the TGI in the test on HCT-116 colon is > 50 µM; with SF-539 CNS, 1.68 µM; in the test on MALME-3M melanoma it was > 50 µM; with UACC-62 melanoma, > 50 µM; in the test with HOP-92 NSCLC, 32.3 µM; in the test on MDA-MB-231 breast, > 38.5 µM. Besides, the TGI in the test on IGROV1 ovarian was > 50 µM; with T-47D breast, > 50 µM; in the test with LOX IMVI melanoma, 5.21 µM; in the test on SF-295 CNS, > 50 µM.
For the molecule `COC(=O)C1(C2CC/C(C)=C/CC/C(C)=C/CC[C@@]3(C)O[C@@H]3C2)CC1` (stereo partly drawn), the GI50 in the test with HCT-116 colon was 33000 nM; in the test on SF-539 CNS it was 35200 nM; in the test on MALME-3M melanoma, > 83800 nM; in the test on UACC-62 melanoma, > 100000 nM; with HOP-92 NSCLC, 27300 nM; in the test on MDA-MB-231 breast, > 48600 nM. The GI50 with IGROV1 ovarian is 30300 nM; with T-47D breast it was > 93000 nM; in the test with LOX IMVI melanoma it was 23600 nM; with SF-295 CNS, > 60400 nM. Besides, the TGI is > 100 µM in the test on HCT-116 colon; > 69.2 µM in the test with SF-539 CNS; > 100 µM in the test on MALME-3M melanoma; > 100 µM in the test with UACC-62 melanoma; > 100 µM in the test on HOP-92 NSCLC; > 74.7 µM with MDA-MB-231 breast. Moreover, the TGI is > 72 µM in the test on IGROV1 ovarian, > 100 µM in the test with T-47D breast, > 60.5 µM in the test with LOX IMVI melanoma and > 100 µM in the test with SF-295 CNS.
Take `Cc1cccc2c1O/C(=C\c1ccc([N+](=O)[O-])o1)C2=O`: the GI50 in the test on HCT-116 colon was 251 nM; in the test with SF-539 CNS it was 1530 nM; with MALME-3M melanoma it was 971 nM; in the test on UACC-62 melanoma, 1260 nM; in the test with HOP-92 NSCLC, 1160 nM; in the test on MDA-MB-231 breast it was 1210 nM. For the same molecule, the GI50 in the test on IGROV1 ovarian was 1540 nM; with T-47D breast it was 1200 nM; in the test on LOX IMVI melanoma, 1230 nM; in the test on SF-295 CNS, 2000 nM. The TGI in the test with HCT-116 colon was 0.777 µM; in the test with SF-539 CNS, 3.22 µM; with MALME-3M melanoma it was 2.66 µM; with UACC-62 melanoma, 2.72 µM; with HOP-92 NSCLC, 2.95 µM; in the test with MDA-MB-231 breast, 3.61 µM. The TGI in the test with IGROV1 ovarian stood at 5.39 µM; in the test with T-47D breast, 3.69 µM; with LOX IMVI melanoma, 2.69 µM; in the test with SF-295 CNS, 6.46 µM.
Consider `C=C1CC2(CCCC3(CC(=C)C(=O)O3)C2(C)C)OC1=O` (stereo not drawn), for which the TGI with HCT-116 colon was 5.22 µM; in the test with SF-539 CNS, 11.4 µM; in the test on MALME-3M melanoma, 3.61 µM; in the test with UACC-62 melanoma it was 4.65 µM; with HOP-92 NSCLC, 19.3 µM; in the test on MDA-MB-231 breast it was 17.7 µM. For the same molecule, the TGI with IGROV1 ovarian was found to be 23.5 µM; with T-47D breast it was 21.3 µM; in the test with LOX IMVI melanoma it was 3.77 µM; in the test on SF-295 CNS it was 33.8 µM.
Regarding `CN1CCN(CCNc2ccc(CO)c3sc4ccccc4c(=O)c23)CC1`, the TGI with HCT-116 colon amounted to 8.24 µM; with SF-539 CNS it was 10.7 µM; in the test on MALME-3M melanoma it was 12 µM; with UACC-62 melanoma it was 9.93 µM; in the test on HOP-92 NSCLC, 13.2 µM; in the test on MDA-MB-231 breast, 15.2 µM. The TGI in the test on IGROV1 ovarian came to 27.2 µM; with T-47D breast, 19.4 µM; with LOX IMVI melanoma, 8.27 µM; in the test with SF-295 CNS, 17.5 µM. The values for the GI50 in the test on MDA-MB-231 breast, with T-47D breast and in the test on LOX IMVI melanoma were 3990 nM, 3370 nM and 2590 nM, respectively.
As for `CS(=O)(=O)CCn1c(=O)c(Oc2ccc(F)cc2F)cc2cnc(NC3CCOCC3)nc21`, the GI50 is > 25000 nM with HCT-116 colon; > 25000 nM in the test on SF-539 CNS; > 25000 nM in the test with MALME-3M melanoma; > 25000 nM in the test with UACC-62 melanoma; 2640 nM with HOP-92 NSCLC; > 25000 nM in the test on MDA-MB-231 breast. In addition, the GI50 in the test with IGROV1 ovarian, in the test on T-47D breast, in the test on LOX IMVI melanoma and in the test with SF-295 CNS was > 25000 nM throughout. The TGI in the test on HCT-116 colon, in the test with SF-539 CNS, with MALME-3M melanoma, with UACC-62 melanoma, with HOP-92 NSCLC and with MDA-MB-231 breast was > 25 µM each time. Moreover, the TGI in the test on IGROV1 ovarian, in the test with T-47D breast, in the test on LOX IMVI melanoma and with SF-295 CNS was > 25 µM throughout.
As to `COC1C(O)C(C)OC(OC2CC3CCC4C(CCC5(C)C(C6=CC(=O)OC6)CCC45O)C3(O)C(OC(C)=O)C2)C1O` (stereo not drawn), the TGI was determined as 4.75 µM with HCT-116 colon; 1.95 µM in the test on SF-539 CNS; 3.74 µM in the test with MALME-3M melanoma; 5.92 µM in the test on UACC-62 melanoma; 11.6 µM with HOP-92 NSCLC; 97.3 µM with MDA-MB-231 breast. Besides, the TGI amounted to 15.7 µM in the test on IGROV1 ovarian, 12.7 µM in the test with T-47D breast, 4.7 µM in the test with LOX IMVI melanoma and 8.57 µM in the test on SF-295 CNS.
For the molecule `NC(Cc1ccnnc1)C(=O)O` (stereo not drawn), the TGI in the test with HCT-116 colon, with SF-539 CNS, in the test with MALME-3M melanoma, in the test on UACC-62 melanoma, with HOP-92 NSCLC and in the test with MDA-MB-231 breast was > 100 µM throughout. Besides, the TGI in the test with IGROV1 ovarian, in the test with T-47D breast, in the test on LOX IMVI melanoma and in the test on SF-295 CNS was > 100 µM in each case.
In the case of `O=S(=O)(O)/C(=C\c1ccccc1)c1ccccc1` (tested in a mixture with another compound), the TGI in the test with HCT-116 colon, with SF-539 CNS, in the test on MALME-3M melanoma, in the test on UACC-62 melanoma, with HOP-92 NSCLC and with MDA-MB-231 breast was > 100 µM in each case. Further, the TGI with IGROV1 ovarian, with T-47D breast, in the test with LOX IMVI melanoma and with SF-295 CNS was > 100 µM each time.

Values taken from PubChem BioAssay (NCI).
